Assay results as given in patent US20180339016A1 (priority 2015, published 2018).

Experiments:
[1] = system: Escherichia coli (ATCC 25922); conditions: peptide alone; peptide concentration required to inhibit growth by 20% (so in the source)
Method in brief: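 Broth microdilution in MH broth with ⅔-fold serial compound dilutions; overnight E. coli culture inoculated at 5×10^5 CFU/mL. After 18 h at 37 °C, growth read as OD600, with viability (%) calculated relative to positive and negative control wells.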

MDA MB231 cells = experiment: FACS penetration of eukaryotic cells; type: cell-based; conditions: 5 microM
From the text: (§1) […]. […] […].

[2] = system: Staphylococcus aureus (ATCC 29213); experiment: MIC of peptide against S. aureus; type: cell-based; conditions: peptide alone
Procedure: The N-terminus of the peptides were acetylated and the C-terminus was amidated. The kinked structure can rapidly reduce the alpha-helical content, thereby greatly reducing the toxicity of the peptide against host cells. In addition, because of the potential to show specificity for the Gram-negative bacterial membrane, Pro-mutants were prepared by site-directed mutagenesis. Using the prepared peptides, their MIC for the Gram-negative bacterium E. coli and the Gram-positive bacterium S. aureus and their hemolytic activity for host cells were examined (Table 1).

E. coli ATCC 25922 [3] = conditions: Table 4
E. coli = experiment: FACS of TAMRA-labeled peptides entering Gram-negative bacteria; type: cell-based
Gram-positive bacteria [4] = experiment: Entry of peptide into Gram-positive bacteria; type: cell-based; conditions: data not shown
From the text: as §1

Gram-positive bacteria [5] = conditions: previously examined peptide; cited from earlier work
E. coli ATCC 25922 [6] = experiment: Antibiotic interaction assay (Wimley), 2/3 broth microdilution: MIC alone, MIC of combination, FICI; type: cell-based
Method in brief: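 Broth microdilution in MH broth with ⅔-fold serial dilutions: each compound alone and a half-and-half peptide/drug mix, inoculum 5×10^5 CFU/mL. Incubation at 37° C for 18 h, growth read as OD600. Synergy expressed as FICI.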

Sequence | MIC [μM] Against E. coli [1] [µM] | penetration of eukaryotic cells (MDA MB231 cells) | MIC [μM] Against S. aureus [2] [µM] | Fractional Inhibitory Concentration Index (FICI), Colistin & 1 μM peptide (E. coli ATCC 25922 [3]) | MIC (μM) against E. coli ATCC 25922, Peptide alone (E. coli ATCC 25922 [3]; bacterial growth <10% of control) [µM] | extent to which the mutated peptides entered Gram-negative bacteria (order) (E. coli; TAMRA-labeled, FIG. 1) | portion of the peptide that entered Gram-negative bacteria (E. coli; peptide about 2.5 microM) | entry into Gram-positive bacteria (Gram-positive bacteria [4]) | activity against Gram-positive bacteria (Gram-positive bacteria [5]) | FICI of peptide with colistin (E. coli ATCC 25922 [6]; labelled peptide + colistin) | FICI of peptide with linezolid (E. coli ATCC 25922 [6]; labelled peptide + linezolid)
LKKLLKLPKKLLKL [LK-L8P] | 10 | did not penetrate eukaryotic cells | >40 | 0.83, Synergism | 3 | P>>N=D>Q=E | about 60% | did not enter Gram-positive bacteria | – | – | –
RAGLQFPVGRVHRLLRK [buforin 5-20] | 20 | – | – | – | – | – | – | – | no activity against Gram-positive bacteria | 0.5 | 0.7
